These results are taken from patent US9771378B2 (Denali Therapeutics, Inc., priority 2014, dated 2017).

The assay deals with Aβ42 (human neuroglioma H4 cells expressing human wild type APP751). Description: In vitro cell screening assay with sandwich ELISA quantification of Aβ42 peptide. It counts as cell-based. As to conditions: H4 cells stably expressing human wild type APP751; Pro293 chemically defined medium; compounds 0.003-10 μM; incubated overnight (16-18 h); supernatant Aβ42 by sandwich ELISA; normalized to DMSO and DAPT; read-out: Aβ42 H4 Prot Fre IC50. Put shortly: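 Aβ42 in supernatants was quantified by sandwich ELISA with C-terminal-specific capture and 4G8-HRP detection, absorbance at 450 nm. Stable APP751-expressing human H4 cells received compound at 0.003-10 μM (0.33% DMSO) overnight (16-18 h). IC50 was derived from percent-of-DMSO-control data by nonlinear variable-slope fit.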
On the technique in general: An ELISA detects its analyte on a solid surface through an enzyme-linked reagent.
What is called IC50 is the concentration that gives 50% inhibition. For `COc1cc(Nc2ncc3c(n2)N(C)C(C2CCS(=O)(=O)CC2)CO3)ccc1-n1cnc(C)c1` (single isomer, unassigned; (-)) [Example 239A, (−)-4-(2-((3-methoxy-4-(4-methyl-1H-imidazol-1-yl)phenyl)amino)-8-methyl-7,8-dihydro-6H-pyrimido [5,4-b] [1, 4]oxazin-7-yl) tetrahydro-2H-thiopyran 1,1-dioxide], the IC50 came to 407 nM. `Cc1cc(-c2ccc(Nc3ncc4c(n3)N(C)C(c3cc(F)c(F)c(F)c3)CO4)cc2)ccn1` (single isomer, unassigned; (-)) [Example 37B]: the IC50 came out at 1540 nM.

Regarding `Cc1cn(-c2ccc(Nc3ncc4c(n3)N(C)C(c3cc(F)c(F)c(F)c3)CO4)cc2)cn1` (single isomer, unassigned; (-)) [Example 115A], the IC50 was found to be 2860 nM.

Consider `Cc1cn(-c2ccc(Nc3ncc4c(n3)N(C)C(c3cc(F)cc(F)c3)CO4)cc2C#N)cn1` (single isomer, unassigned; (+)) [Example 203A, (+)-5-((7-(3,5-difluorophenyl)-8-methyl-7,8-dihydro-6H-pyrimido [5,4-b] [1, 4]oxazin-2-yl)amino)-2-(4-methyl-1H-imidazol-1-yl) benzonitrile], for which the IC50 amounted to 16 nM. With `COc1cc(Nc2ncc3c(n2)N(C)C(C2(C(F)(F)F)CC2)CO3)ccc1-n1cnc(C)c1` (single isomer, unassigned; (+)) [Example 245B], the IC50 was 22 nM. Under `COc1nc(Nc2ncc3c(n2)N(C)C(c2cc(F)c(F)c(F)c2)CO3)ccc1-n1cnc(C)c1` (single isomer, unassigned; (-)) [Example 188A] stands over 3000 nM.

On to `COc1cc(Nc2ncc3c(n2)N(C)C(c2ccc(Cl)cc2C(F)(F)F)CO3)ccc1-n1cnc(C)c1` (single isomer, unassigned; (+)) [Example 112B], for which the IC50 is 64 nM. Under `COc1cc(Nc2ncc3c(n2)N(C)C(c2cc(F)ccc2C(F)(F)F)CO3)ccc1-n1cnc(C)c1` (single isomer, unassigned; (-)) [Example 105A] stands 88 nM; under `Cc1cc(-c2ccc(Nc3ncc4c(n3)N(C)C(c3ccc(F)cc3Cl)CO4)cc2F)ccn1` (single isomer, unassigned; (+)) [Example 102A], 415 nM. With `COc1cc(Nc2ncc3c(n2)N(C)C(c2ccccc2OC(F)(F)F)CO3)ccc1-n1cnc(C)c1` (single isomer, unassigned; (+)) [Example 60B], the concentration for half-maximal inhibition (IC50) stood at 78 nM. Under `Cc1cn(-c2ccc(Nc3ncc4c(n3)N(C)C(c3cc(F)c(F)c(F)c3)CO4)cc2)cn1` (single isomer, unassigned; (+)) [Example 115B] stands 22 nM; under `COc1ccc(C2COc3cnc(Nc4cnc(-n5cnc(C)c5)c(OC)c4)nc3N2C)c(Cl)c1` (single isomer, unassigned; (-)) [Example 209B], 55 nM. On to `COc1cc(Nc2ncc3c(n2)N(C)C(C(F)(F)F)CO3)ccc1C#N` (single isomer, unassigned; (+)) [Example 230A, (+)-2-methoxy-4-((8-methyl-7-(trifluoromethyl)-7,8-dihydro-6H-pyrimido [5,4-b] [1, 4]oxazin-2-yl)amino) benzonitrile], for which the IC50 was over 3000 nM. In the case of `COc1cc(Nc2ncc3c(n2)N(C)C(C(F)(F)F)CO3)ccc1-n1cnc(C)n1` (single isomer, unassigned; (+)) [Example 242B], the IC50 was 1860 nM.

Regarding `COc1ccc(C2COc3cnc(Nc4cnc(-n5cnc(C)c5)c(OC)c4)nc3N2C)c(Cl)c1` (single isomer, unassigned; (+)) [Example 209A], the IC50 came out at 21 nM. In the case of `Cc1cn(-c2ccc(Nc3ncc4c(n3)N(C)C(c3cc(F)cc(F)c3)CO4)cc2F)cn1` (racemic) [Example 33], the IC50 amounted to 38 nM. Under `Cc1cn(-c2ccc(Nc3ncc4c(n3)N3CCC[C@]3(C)CO4)cc2F)cn1` [Example 293, (R)-N-(3-fluoro-4-(4-methyl-1H-imidazol-1-yl)phenyl)-6a-methyl-6a, 7,8,9-tetrahydro-6H-pyrimido [5,4-b] pyrrolo [1,2-d] [1, 4] oxazin-2-amine] stands 276 nM; under `COc1cc(Nc2ncc3c(n2)N(C)C(Cc2ccccc2)CO3)ccc1-c1ccnc(C)c1` (single isomer, unassigned; (-)) [Example 68B], 229 nM; under `COc1cc(Nc2ncc3c(n2)N(C)C(c2ccc(F)cc2Cl)CO3)ccc1-n1cnc(C)c1` (racemic) [Example 53], 37 nM. Under `COc1cc(Nc2ncc3c(n2)N(C)C(C2CC(F)(F)C2)CO3)cnc1-n1cnc(C)c1` (single isomer, unassigned; (-)) [Example 219B] stands 398 nM; under `COc1cc(Nc2ncc3c(n2)N(C)C(Cc2ccccc2)CO3)ccc1-n1cnc(C)c1` (racemic) [Example 47], 41 nM. Under `Cc1cn(-c2ccc(Nc3ncc4c(n3)N(C)C(c3cc(F)c(F)cc3F)CO4)cc2F)cn1` (single isomer, unassigned; (+)) [Example 98A] stands 20 nM; under `COc1cc(Nc2ncc3c(n2)N(C)C(C)(C)CO3)ccc1-n1cnc(C)c1` [Example 254], 54 nM. As to `Cc1cn(-c2ccc(Nc3ncc4c(n3)N(C)C(c3cc(F)c(F)c(F)c3)CO4)cc2)cn1` (racemic) [Example 44], the IC50 came out at 75 nM. Under `Cc1cn(-c2ccc(Nc3ncc4c(n3)N(C)C(c3cc(F)ccc3C(F)(F)F)CO4)cc2F)cn1` (single isomer, unassigned; (+)) [Example 104B] stands 77 nM; under `Cc1cn(-c2ccc(Nc3ncc4c(n3)N(C)C(C3CCOCC3)CO4)cc2F)cn1` (single isomer, unassigned; (-)) [Example 109B], over 3000 nM; under `Cc1cn(-c2ccc(Nc3ncc4c(n3)N(C)C(C(F)(F)F)CO4)cc2C#N)cn1` (single isomer, unassigned; (-)) [Example 232B, (−)-2-(4-methyl-1H-imidazol-1-yl)-5-((8-methyl-7-(trifluoromethyl)-7,8-dihydro-6H-pyrimido [5,4-b] [1, 4]oxazin-2-yl)amino) benzonitrile], 17 nM. As for `Cc1cn(-c2ccc(Nc3ncc4c(n3)N(C)C(Cc3ccccc3)CO4)cc2F)cn1` (single isomer, unassigned; (+)) [Example 59A], the concentration for half-maximal inhibition (IC50) turned out to be 81 nM. Under `Cc1cn(-c2ccc(Nc3ncc4c(n3)N(C)C(c3ccccc3)CO4)cc2F)cn1` (racemic) [Example 25] stands 101 nM.

As to `COc1cc(Nc2ncc3c(n2)N(C)C(c2ccc(F)cc2F)CO3)cnc1-n1cnc(C)c1` (single isomer, unassigned; (+)) [Example 186A], the IC50 was found to be 18 nM. As to `Cc1cn(-c2ccc(Nc3ncc4c(n3)N(C)C(c3ccccc3C)CO4)cc2F)cn1` (single isomer, unassigned; (-)) [Example 34B], the IC50 is 460 nM.

With `COc1cc(Nc2ncc3c(n2)N2CCCC2CO3)ccc1-n1cnc(C)c1` (single isomer, unassigned; (+)) [Example 290B, (+)-N-(3-methoxy-4-(4-methyl-1H-imidazol-1-yl)phenyl)-6a, 7,8,9-tetrahydro-6H-pyrimido [5,4-b] pyrrolo [1,2-d] [1, 4] oxazin-2-amine], the IC50 is 151 nM. Under `COc1cc(Nc2ncc3c(n2)N(C)C(C)CO3)ccc1-n1cnc(Cl)c1` (single isomer, unassigned; (-)) [Example 202A] stands 167 nM.
